Assay results reported in patent US5534496A, “Methods and compositions to enhance epithelial drug transport” (University of Southern California, priority 1994, dated 1996).
Entries after “also recorded” stand apart in the source; their conditions may differ. Where a SMILES comes first, the peptide text is derived from it. [ ]: non-standard residue; d: D form. The star is where a group is joined. X1 = O=C(OCc1ccc(/N=N/c2ccccc2)cc1)*

Experiments:
[1] = system: bacterial collagenase; assay: Hydrolysis by bacterial collagenase; conditions: 0.04 mg/ml bacterial collagenase
[2] = Degradation in intestinal homogenates; assay type: in vitro ADME; conditions: 0.5 mM; various intestinal homogenates
From the text: Key: .quadrature., Pz-Pro-Leu; , Pro-Leu.

[3] = system: Caco2 monolayers; assay: Penetration of peptides across Caco2 monolayers; conditions: 5 mM
[4] = system: isolated segments of duodenum, jejunum, ileum, ascending colon, descending colon, and rectum; assay: Penetration across isolated intestinal segments in modified Ussing chamber; assay type: in vitro ADME, albino rabbit; conditions: for penetration relative to atenolol, timolol and propranolol: all intestinal segments, all at 3 mM; for penetration: descending colon
Method: The penetration of Pz-peptide across the isolated segments of duodenum, jejunum, ileum, ascending colon, descending colon, and rectum of the albino rabbit was evaluated in the modified Ussing chamber. Solution of Pz-peptide at concentrations of 1, 3, and 5 mM were prepared in 5% hydroxypropyl β-cyclodextrin, which was found not to affect either collagenase activity or integrity of the intestinal segments. Periodically up until 240 min, a 50 μl aliquot was collected from the serosal side and injected directly into the HPLC. The apparent permeability coefficient Papp, was calculated using methods well known to one skilled in the art. Papp is defined as the flux of any solute transported across a given membrane per unit area normalized to the concentration applied (see pages 72-73 from the text by W. D. Stein entitled, "Transport and Diffusion A Cross Cell Membranes").

[5] = system: collagenase-like activity; assay: Collagenase activity (Pz-peptide hydrolysis) in homogenates and subcellular fractions of gastrointestinal mucosa; assay type: in vitro ADME; conditions: albino rabbit intestinal segments
Method: Collagenase activity in homogenates and subcellular fractions of the gastrointestinal mucosa of the albino rabbit was determined by incubating 30 μl a homogenate or subcellular fraction with 20 μl of a Pz-peptide solution in 11% ethanol for up to 60 min. The subcellular fractions were the cytosolic and membrane fractions, and the concentrations of Pz-peptide ranged from 0.1 to 2 mM. The reaction was stopped by adding 225 μl of acetonitrile to the incubation mixture. Following centrifugation to remove precipitated proteins, an aliquot of the supernatant was injected into the HPLC for assay of the intact peptide and its hydrolytic product, Pz-L-Pro-L-Leu. Collagenase activity was determined from the initial slope of a plot of product concentration vs. time.
Using the procedure described in section A above, collagenase actively for the Pz-peptide was found in both tissue homogenate and subcellular fractions of the intestinal segments of the albino rabbit. Referring to FIG. 1, collagenase-like activity was highest in the descending colon and lowest in the jejunum, there being a 7-fold difference in activity at both high and low substrate concentration. […] About 60% of collagenase-like activity was in the cytosol.

[6] = system: human colon carcinoma cell monolayer (Caco2); assay: Transepithelial electrical resistance (TEER) of Caco2 monolayers; conditions: 3 mM; prolonged exposure
Method: A 500 ohms·cm^2 transepithelial electrical resistance, TEER, was used for the study.
The experiment was initiated by replacing the mucosal solution with sample solution. The viability of the cell monolayers was measured by TEER before and after exposure to the peptide solution. Five paracellular markers with different molecular radii were used to determine the extent of enhancement.

[7] = from Betageri and Rogers (1987); cited from earlier work

CC(C)C[C@H](NC(=O)[C@@H]1CCCN1)C(=O)N[C@@H](CCC(=O)O)C(=O)N1CCC[C@H]1C(=O)N[C@H](CCCNC(=N)N)C(=O)O [PLEP^d R, Pro-Leu-Glu-Pro-^d Arg] (H-PLEP[dR]-OH)
susceptibility to collagenase action [1]: not susceptible to collagenase action

CC(C)C[C@H](NC(=O)[C@@H]1CCCN1)C(=O)O [Pro-Leu, reference compound] (H-Pro-Leu-OH)
enzymatic degradation [2]: degraded to various extent
penetration relative to Pz-Pro-Leu [3]: about 10 times lower

CC(C)C[C@H](NC(=O)[C@@H]1CCCN1C(=O)OCc1ccc(/N=N/c2ccccc2)cc1)C(=O)O [Pz-Pro-Leu, Pz-L-Pro-L-Leu]
concentration dependence of penetration ([4]; all intestinal segments studied): independent of concentrations
penetration relative to atenolol, timolol and propranolol [4]: penetrated equally well or even better
penetration [4]: penetrated very well
enzymatic degradation [2]: resistant to enzymatic degradation

CC(C)C[C@H](NC(=O)[C@@H]1CCCN1C(=O)OCc1ccc(/N=N/c2ccccc2)cc1)C(=O)NCC(=O)N1CCC[C@H]1C(=O)N[C@H](CCCNC(=N)N)C(=O)O [Pz-peptide, Pz-Pro-Leu-Gly-Pro-D-Arg] (X1-PLGP[dR]-OH)
rank order of collagenase-like activity (Pz-peptide hydrolysis) in intestinal segments [5]: descending colon>ascending colon>rectum>ileum>duodenum>jejunum
concentration dependence of penetration ([4]; 1-5 mM, lower G.I. regions): increased with increasing peptide concentrations
concentration dependence of transport ([4]; 1-5 mM, upper G.I. segments): independent of concentrations
permeability, lower intestine versus upper intestine ([4]; albino rabbit intestinal segments): lower intestine was more permeable
penetration relative to atenolol, timolol and propranolol [4]: penetrated equally well or even better
penetration [4]: penetrated very well; also recorded: penetrated the second best
rank order of permeability coefficient ([4]; lower intestine): rectum>descending colon>ascending colon
permeability of duodenum, jejunum and ileum ([4]; upper intestine): equally permeable

C=C1[C@@H](C)[C@H]2[C@H](Cc3ccccc3)NC(=O)[C@]23OC(=O)/C=C/[C@H](O)CCC[C@@H](C)C/C=C/[C@H]3[C@@H]1O [cytochalasin B]
recovery of TEER [6]: only partial recovery

CC(C)NCC(O)COc1cccc2ccccc12 (stereo not drawn) [propranolol]
distribution coefficient (DC) [7]: 1640

CC(C)(C)NC[C@H](O)COc1nsnc1N1CCOCC1 [timolol]
distribution coefficient (DC) [7]: 82
